Measurements taken from paper PMC6210068 (ACS Omega, 2018).

Assays:
[1] = target: human 5HT1A serotonin receptor (Homo sapiens, UniProt P08908); experiment: PDSP off-target binding, 5HT1A
[2] = target: rat kidney TSPO (Rattus norvegicus, UniProt P16257); experiment: Radioligand binding at TSPO; settings: for Ki: TSPO, rat TSPO, [3H]PK11195
[3] = target: T1, rat σ2 receptor (Rattus norvegicus, UniProt Q5U3Y7); experiment: PDSP binding, σ2 receptor
T1 sequence (Q5U3Y7 1-176): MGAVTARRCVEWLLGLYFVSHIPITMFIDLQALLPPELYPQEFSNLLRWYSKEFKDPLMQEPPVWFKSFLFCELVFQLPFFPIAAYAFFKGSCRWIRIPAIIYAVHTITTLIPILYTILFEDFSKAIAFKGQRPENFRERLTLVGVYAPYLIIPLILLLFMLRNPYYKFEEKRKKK

[4] = target: T2, DOR (Homo sapiens, UniProt P41143); experiment: Radioligand binding at DOR
T2 sequence (P41143 whole entry): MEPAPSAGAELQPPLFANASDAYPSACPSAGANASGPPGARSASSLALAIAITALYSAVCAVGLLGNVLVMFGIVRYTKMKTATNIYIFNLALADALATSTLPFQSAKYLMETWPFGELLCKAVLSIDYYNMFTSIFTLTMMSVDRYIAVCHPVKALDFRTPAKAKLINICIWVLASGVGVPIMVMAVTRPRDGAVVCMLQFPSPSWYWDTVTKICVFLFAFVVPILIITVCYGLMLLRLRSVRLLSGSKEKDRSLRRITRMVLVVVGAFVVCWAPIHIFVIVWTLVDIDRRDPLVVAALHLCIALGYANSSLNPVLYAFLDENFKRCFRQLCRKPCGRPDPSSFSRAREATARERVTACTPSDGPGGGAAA

[5] = target: T3, hDAT (Homo sapiens, UniProt Q01959); settings: read-out: Ki, inhibition of binding of [3H]103 at hDAT; cited from earlier work
T3 sequence (Q01959 whole entry): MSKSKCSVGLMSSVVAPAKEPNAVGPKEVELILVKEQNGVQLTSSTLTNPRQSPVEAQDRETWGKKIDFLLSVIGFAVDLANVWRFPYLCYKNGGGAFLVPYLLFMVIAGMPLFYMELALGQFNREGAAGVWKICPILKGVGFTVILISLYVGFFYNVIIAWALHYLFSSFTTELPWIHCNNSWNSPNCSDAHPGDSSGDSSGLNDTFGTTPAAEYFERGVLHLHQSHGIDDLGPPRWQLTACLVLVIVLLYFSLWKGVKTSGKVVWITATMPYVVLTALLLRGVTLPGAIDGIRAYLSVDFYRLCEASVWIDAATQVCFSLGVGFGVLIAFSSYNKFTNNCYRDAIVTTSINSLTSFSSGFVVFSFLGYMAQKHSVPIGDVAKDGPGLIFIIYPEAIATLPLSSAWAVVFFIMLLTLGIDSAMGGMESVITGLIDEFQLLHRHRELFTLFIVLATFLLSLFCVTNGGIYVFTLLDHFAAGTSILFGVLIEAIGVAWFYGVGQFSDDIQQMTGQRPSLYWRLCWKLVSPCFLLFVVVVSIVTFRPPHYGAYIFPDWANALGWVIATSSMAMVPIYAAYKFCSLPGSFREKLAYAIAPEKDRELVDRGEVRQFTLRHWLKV

[6] = target: β3 adrenergic receptor (Homo sapiens, UniProt P13945); experiment: PDSP off-target binding, β3 adrenergic
Sequence of β3 adrenergic receptor (P13945 whole entry): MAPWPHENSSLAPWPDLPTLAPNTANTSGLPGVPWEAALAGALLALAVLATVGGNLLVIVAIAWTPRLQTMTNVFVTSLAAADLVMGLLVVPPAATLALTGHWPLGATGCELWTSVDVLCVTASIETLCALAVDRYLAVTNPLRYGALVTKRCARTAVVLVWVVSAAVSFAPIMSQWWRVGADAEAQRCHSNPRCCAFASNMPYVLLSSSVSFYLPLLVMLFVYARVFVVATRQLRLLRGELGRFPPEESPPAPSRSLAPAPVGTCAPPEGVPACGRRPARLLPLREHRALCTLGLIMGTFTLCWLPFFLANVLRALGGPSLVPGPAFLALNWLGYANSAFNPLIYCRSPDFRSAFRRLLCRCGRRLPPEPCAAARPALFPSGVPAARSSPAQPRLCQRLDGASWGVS

[7] = target: T4, hNET (Homo sapiens, UniProt P23975); settings: read-out: Ki, inhibition of binding of [3H]104 at NET; cited from earlier work
T4 sequence (P23975 whole entry): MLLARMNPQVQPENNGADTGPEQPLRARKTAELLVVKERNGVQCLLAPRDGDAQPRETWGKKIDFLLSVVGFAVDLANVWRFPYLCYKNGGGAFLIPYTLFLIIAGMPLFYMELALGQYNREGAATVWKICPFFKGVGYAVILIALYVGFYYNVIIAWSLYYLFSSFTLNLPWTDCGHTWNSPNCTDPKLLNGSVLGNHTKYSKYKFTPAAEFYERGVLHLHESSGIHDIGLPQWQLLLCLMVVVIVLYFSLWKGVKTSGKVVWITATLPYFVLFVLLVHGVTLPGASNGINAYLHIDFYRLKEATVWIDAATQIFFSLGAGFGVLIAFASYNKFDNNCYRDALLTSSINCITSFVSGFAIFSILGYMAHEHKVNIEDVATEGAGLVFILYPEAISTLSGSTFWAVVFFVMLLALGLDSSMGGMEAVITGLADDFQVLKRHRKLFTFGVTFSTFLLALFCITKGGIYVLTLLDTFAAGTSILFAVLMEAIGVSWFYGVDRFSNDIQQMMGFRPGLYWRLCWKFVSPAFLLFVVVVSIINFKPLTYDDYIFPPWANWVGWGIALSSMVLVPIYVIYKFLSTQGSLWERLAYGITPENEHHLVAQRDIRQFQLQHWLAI

[8] = target: T3, hDAT; experiment: Radioligand binding at DAT; settings: for DAT, inhibition, % of control at 10 μM: [3H]WIN35428, negative = enhanced radioligand binding
[9] = target: T5, KOR (Homo sapiens, UniProt P41145); experiment: biochemical; assay type: binding; settings: for Ki: KOR, [3H]U69593, mean ± SEM, N = 2–4
T5 sequence (P41145 whole entry): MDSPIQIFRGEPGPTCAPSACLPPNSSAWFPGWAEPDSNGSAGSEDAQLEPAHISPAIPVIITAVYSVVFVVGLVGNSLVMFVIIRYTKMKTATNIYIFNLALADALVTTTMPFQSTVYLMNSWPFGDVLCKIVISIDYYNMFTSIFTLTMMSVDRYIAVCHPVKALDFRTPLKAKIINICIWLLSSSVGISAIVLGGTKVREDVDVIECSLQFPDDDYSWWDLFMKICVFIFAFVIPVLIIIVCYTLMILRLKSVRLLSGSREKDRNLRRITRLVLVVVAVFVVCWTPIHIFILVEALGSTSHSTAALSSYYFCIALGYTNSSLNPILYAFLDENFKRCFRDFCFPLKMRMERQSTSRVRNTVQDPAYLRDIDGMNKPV

[10] = target: T6, MOR (Homo sapiens, UniProt P35372); experiment: biochemical; assay type: binding
T6 sequence (P35372 whole entry): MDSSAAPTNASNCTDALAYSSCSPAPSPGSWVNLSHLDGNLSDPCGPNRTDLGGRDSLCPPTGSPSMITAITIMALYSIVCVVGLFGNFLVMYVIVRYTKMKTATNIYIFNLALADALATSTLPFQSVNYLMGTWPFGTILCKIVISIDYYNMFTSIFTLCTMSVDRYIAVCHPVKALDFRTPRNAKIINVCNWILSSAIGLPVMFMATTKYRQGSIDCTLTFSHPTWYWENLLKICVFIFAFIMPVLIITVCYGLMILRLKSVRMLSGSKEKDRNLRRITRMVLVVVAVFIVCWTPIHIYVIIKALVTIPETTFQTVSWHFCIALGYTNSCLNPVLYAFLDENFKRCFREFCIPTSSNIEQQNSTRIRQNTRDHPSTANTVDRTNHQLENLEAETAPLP

[11] = target: muscarinic M1 receptor (Homo sapiens, UniProt P11229); experiment: PDSP off-target binding, muscarinic M1
[12] = target: 5HT2B serotonin receptor (Homo sapiens, UniProt P41595); experiment: PDSP off-target binding, 5HT2B
Sequence of 5HT2B serotonin receptor (P41595 whole entry): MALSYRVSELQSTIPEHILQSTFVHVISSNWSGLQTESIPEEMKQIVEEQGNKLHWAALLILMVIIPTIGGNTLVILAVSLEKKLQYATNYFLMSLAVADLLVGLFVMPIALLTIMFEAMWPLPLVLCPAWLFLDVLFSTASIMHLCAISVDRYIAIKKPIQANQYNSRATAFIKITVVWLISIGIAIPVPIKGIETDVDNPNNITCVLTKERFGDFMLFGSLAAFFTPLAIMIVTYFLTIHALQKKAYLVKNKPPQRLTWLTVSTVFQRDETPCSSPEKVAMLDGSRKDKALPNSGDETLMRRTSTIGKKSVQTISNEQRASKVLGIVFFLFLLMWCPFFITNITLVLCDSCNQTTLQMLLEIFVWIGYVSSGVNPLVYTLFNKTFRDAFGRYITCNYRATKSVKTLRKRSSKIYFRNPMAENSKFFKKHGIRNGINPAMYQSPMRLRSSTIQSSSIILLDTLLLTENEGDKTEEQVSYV

[13] = target: T7, hA3AR (Homo sapiens, UniProt P0DMS8); experiment: A3AR binding; settings: for reduction of hA3AR binding affinity by 7-deaza modification: 28 vs 24, 54 vs 49, 55 vs 51
T7 sequence (P0DMS8 1-318): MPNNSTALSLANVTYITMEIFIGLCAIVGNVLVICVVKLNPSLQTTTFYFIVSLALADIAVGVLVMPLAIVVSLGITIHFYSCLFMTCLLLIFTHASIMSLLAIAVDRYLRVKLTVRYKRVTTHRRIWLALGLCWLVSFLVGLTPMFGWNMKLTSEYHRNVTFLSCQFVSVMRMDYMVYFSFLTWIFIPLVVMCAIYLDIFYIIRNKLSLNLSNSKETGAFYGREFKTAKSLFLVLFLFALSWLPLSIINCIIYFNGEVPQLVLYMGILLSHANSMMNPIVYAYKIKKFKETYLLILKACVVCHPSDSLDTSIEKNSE

[14] = target: T8, hA1AR (Homo sapiens, UniProt P30542); experiment: hA1AR binding
T8 sequence (P30542 1-326): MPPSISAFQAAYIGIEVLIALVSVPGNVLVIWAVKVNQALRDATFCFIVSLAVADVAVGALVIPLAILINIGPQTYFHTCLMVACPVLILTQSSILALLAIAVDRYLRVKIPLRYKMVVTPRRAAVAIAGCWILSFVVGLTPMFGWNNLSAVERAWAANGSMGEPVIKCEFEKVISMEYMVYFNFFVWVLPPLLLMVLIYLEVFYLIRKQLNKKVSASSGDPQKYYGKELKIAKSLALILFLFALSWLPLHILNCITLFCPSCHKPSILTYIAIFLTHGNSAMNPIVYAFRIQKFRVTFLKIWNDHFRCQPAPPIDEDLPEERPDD

[15] = target: T9, mA1AR (Mus musculus, UniProt Q60612); experiment: mA1AR binding; settings: read-out: mA1AR binding, % inhibition at 10 μM
T9 sequence (Q60612 1-326): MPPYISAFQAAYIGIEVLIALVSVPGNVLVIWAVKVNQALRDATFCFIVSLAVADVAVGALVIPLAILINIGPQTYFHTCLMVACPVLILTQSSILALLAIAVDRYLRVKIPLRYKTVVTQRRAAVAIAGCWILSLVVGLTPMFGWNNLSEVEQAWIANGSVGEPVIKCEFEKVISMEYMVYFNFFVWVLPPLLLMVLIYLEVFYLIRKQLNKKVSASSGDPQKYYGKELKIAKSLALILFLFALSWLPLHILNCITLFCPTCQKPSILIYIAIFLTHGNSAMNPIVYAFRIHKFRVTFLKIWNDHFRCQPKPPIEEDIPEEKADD

[16] = target: CYP2C9 (Homo sapiens, UniProt P11712); experiment: Cytochrome P450 inhibition in human microsomes, 2C9; assay type: in vitro ADME; settings: CYP450 2C9 IC50, human microsomes
[17] = target: CYP2D6 (Homo sapiens, UniProt P10635); experiment: Cytochrome P450 inhibition in human microsomes, 2D6; assay type: in vitro ADME; settings: CYP450 2D6 IC50, human microsomes
Sequence of CYP2D6 (P10635 whole entry): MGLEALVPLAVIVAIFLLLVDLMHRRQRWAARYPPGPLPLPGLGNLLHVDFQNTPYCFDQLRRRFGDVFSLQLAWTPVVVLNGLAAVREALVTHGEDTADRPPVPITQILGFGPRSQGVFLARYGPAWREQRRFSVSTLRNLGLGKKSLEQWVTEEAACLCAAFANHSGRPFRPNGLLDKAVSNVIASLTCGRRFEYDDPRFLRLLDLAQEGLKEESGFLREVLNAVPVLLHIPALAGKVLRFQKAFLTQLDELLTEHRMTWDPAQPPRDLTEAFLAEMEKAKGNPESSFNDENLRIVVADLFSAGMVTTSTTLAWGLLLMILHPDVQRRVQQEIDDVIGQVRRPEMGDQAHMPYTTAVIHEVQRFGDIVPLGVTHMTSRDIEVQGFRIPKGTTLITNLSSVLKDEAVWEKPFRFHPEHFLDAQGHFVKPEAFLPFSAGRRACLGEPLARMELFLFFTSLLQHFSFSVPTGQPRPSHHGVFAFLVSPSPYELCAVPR

[18] = tested on: CACO-2 cells; experiment: CACO-2 cell permeability; assay type: in vitro ADME; settings: human, Caco-2, 120 min, 10 µM, pH 7.4
[19] = CACO-2 cell permeability; assay type: in vitro ADME; settings: human, Caco-2, pH 7.4
[20] = target: T3, hDAT; experiment: [3H]dopamine uptake inhibition at hDAT; assay type: cell-based
[21] = target: T2, DOR; experiment: β-arrestin-recruitment TANGO assay at DOR; assay type: cell-based; settings: 10 μM
[22] = target: hERG (Homo sapiens, UniProt Q12809); experiment: hERG inhibition, fluorescence polarization assay; assay type: binding
[23] = target: T5, KOR; assay type: cell-based; settings: antagonism of 1 μM U69593 98
[24] = target: CYP2C19 (Homo sapiens, UniProt P33261); experiment: Cytochrome P450 inhibition in human microsomes, 2C19; assay type: in vitro ADME; settings: CYP450 2C19 IC50, human microsomes
[25] = Pharmacokinetics after intravenous and oral administration; assay type: in vivo, male Sprague Dawley rats
[26] = target: hSERT (Homo sapiens, UniProt P31645); experiment: hSERT binding and serotonin uptake
[27] = target: T4, hNET; experiment: hNET binding, [125I]118
[28] = target: mA2AAR (Mus musculus, UniProt Q60613); experiment: mA2AAR binding; settings: read-out: mA2AAR binding, % inhibition at 10 μM
[29] = target: T3, hDAT; experiment: hDAT binding modulation, [3H]mazindol 119
[30] = target: hNOP (Homo sapiens, UniProt P41146); experiment: Radioligand binding at NOP
Sequence of hNOP (P41146 whole entry): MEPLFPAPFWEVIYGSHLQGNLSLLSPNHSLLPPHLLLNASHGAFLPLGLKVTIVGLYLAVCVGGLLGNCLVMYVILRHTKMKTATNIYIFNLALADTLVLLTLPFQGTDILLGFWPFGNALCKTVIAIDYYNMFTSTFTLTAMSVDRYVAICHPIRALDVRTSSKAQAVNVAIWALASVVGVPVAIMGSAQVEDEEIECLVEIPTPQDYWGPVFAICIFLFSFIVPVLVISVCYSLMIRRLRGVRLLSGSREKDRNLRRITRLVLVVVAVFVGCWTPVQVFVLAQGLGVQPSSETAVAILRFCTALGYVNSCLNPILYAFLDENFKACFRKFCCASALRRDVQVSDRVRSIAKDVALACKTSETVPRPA

[31] = target: T5, KOR; experiment: β-arrestin-recruitment TANGO assay at KOR; assay type: cell-based; settings: 10 μM; vs naloxone 121 = 100% inhibition; agonist 109 (3 nM)
[32] = Human plasma stability; assay type: in vitro ADME; settings: after 2 h
[33] = target: CYP1A2 (Homo sapiens, UniProt P05177); experiment: Cytochrome P450 inhibition in human microsomes, 1A2; assay type: in vitro ADME; settings: CYP450 1A2 IC50, human microsomes
[34] = target: T7, hA3AR; experiment: hA3AR-mediated inhibition of cAMP formation; assay type: cell-based; settings: read-out: maximal efficacy, hA3AR-mediated inhibition of cAMP formation
[35] = target: T6, MOR; experiment: β-arrestin-recruitment TANGO assay at MOR; assay type: cell-based; settings: 10 μM
[36] = target: CYP3A4 (Homo sapiens, UniProt P08684); experiment: Cytochrome P450 inhibition in human microsomes, 3A4; assay type: in vitro ADME; settings: CYP450 3A4 IC50, human microsomes
[37] = male, Sprague-Dawley, rat, plasma, po

Sequence of rat kidney TSPO (P16257 whole entry): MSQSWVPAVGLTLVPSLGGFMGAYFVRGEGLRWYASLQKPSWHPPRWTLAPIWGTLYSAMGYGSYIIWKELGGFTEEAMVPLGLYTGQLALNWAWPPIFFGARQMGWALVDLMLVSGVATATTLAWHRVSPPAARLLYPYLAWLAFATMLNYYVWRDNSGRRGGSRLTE
Sequence of human 5HT1A serotonin receptor (P08908 whole entry): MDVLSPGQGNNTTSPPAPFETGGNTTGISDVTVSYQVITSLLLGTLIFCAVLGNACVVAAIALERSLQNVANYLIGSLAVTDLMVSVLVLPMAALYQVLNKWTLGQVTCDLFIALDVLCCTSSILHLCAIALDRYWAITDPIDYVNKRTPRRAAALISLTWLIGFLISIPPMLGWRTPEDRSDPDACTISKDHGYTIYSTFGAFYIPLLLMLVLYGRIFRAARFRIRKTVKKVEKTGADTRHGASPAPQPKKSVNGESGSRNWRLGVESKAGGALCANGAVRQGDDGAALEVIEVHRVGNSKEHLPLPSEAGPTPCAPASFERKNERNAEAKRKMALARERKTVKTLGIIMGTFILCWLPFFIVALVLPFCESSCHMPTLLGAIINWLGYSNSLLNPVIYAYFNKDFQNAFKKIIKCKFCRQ

SMILES: CNC(=O)[C@@]12C[C@@H]1[C@@H](n1cnc3c(NC4CC4c4ccccc4)nc(C#Cc4ccccc4)nc31)[C@H](O)[C@@H]2O (mixture of isomers) [compound 10]
- Ki [1]: 6.3 µM
- TSPO, inhibition of radioligand binding at 10 μM (class) ([2]; Table 1): ^f (<30% inhibition of radioligand binding at 10 μM)
- Ki [3]: 2510 nM
- DOR, inhibition of radioligand binding at 10 μM (class) ([4]; Table 1): ^e (30–50% inhibition of radioligand binding at 10 μM)
- Ki [5]: 2310 nM
- Ki [6]: 2500 nM

SMILES: CCNc1nc(C#Cc2ccccc2)nc2c1ncn2[C@H]1[C@H](O)[C@H](O)[C@@H]2C[C@@H]21 [compound 50]
- Ki [7]: 8.66 µM
- TSPO, inhibition of radioligand binding at 10 μM (class) ([2]; Table 4): ^f (30–50% inhibition of radioligand binding at 10 μM)
- DOR, inhibition of radioligand binding at 10 μM (class) ([4]; Table 4): ^g (<30% inhibition of radioligand binding at 10 μM)
- DAT, inhibition, % of control at 10 μM [8]: –154%

SMILES: O[C@@H]1[C@H](O)[C@@H]2C[C@@H]2[C@H]1n1ccc2c(NCCc3ccccc3)nc(C#Cc3ccccc3)nc21 [compound 55, (1R,2R,3S,4R,5S)-4-(4-(Phenethylamino)-2-(phenylethynyl)-7H-pyrrolo[2,3-d]pyrimidin-7-yl)bicyclo[3.1.0]hexane-2,3-diol]
- Ki [9]: 1370 ± 180 nM
- Ki [10]: 4020 ± 890 nM
- Ki [2]: 2120 ± 230 nM
- Ki [11]: 6.97 µM
- Ki [4]: 3660 ± 1330 nM
- Ki [12]: 3.06 ± 0.17 µM
- Ki [13]: 217 ± 65 nM
- reduction of hA3AR binding affinity by 7-deaza modification [13]: 11 fold
- Ki [14]: 1300 nM

SMILES: CCOC(=O)[C@@]12C[C@@H]1[C@@H](n1ccc3c(NC)nc(C#Cc4ccc(Cl)s4)nc31)[C@H](O)[C@@H]2O [compound 28, Ethyl(1S,2R,3S,4R,5S)-4-(2-((5-chlorothiophen-2-yl)ethynyl)-4-(methylamino)-7H-pyrrolo[2,3-d]pyrimidin-7-yl)-2,3-dihydroxybicyclo[3.1.0]hexane-1-carboxylate]
- inhibition at 10 µM [15]: 32%
- IC50 [16]: ≥ 10 µM
- ligand efficiency ([9]; KOR binding): 0.25
- Ki [9]: 42 ± 1 nM
- preference for KOR in comparison to DOR ([9]; ratio of Ki): 19 fold
- preference for KOR in comparison to MOR ([9]; ratio of Ki): 15 fold
- preference for KOR in comparison to TSPO ([9]; ratio of Ki): ~20 fold
- Ki [10]: 637 ± 367 nM
- IC50 [17]: ≥ 10 µM
- Ki [2]: 869 ± 160 nM
- Efflux Ratio [18]: 15.6
- Papp A→B at 120 min, 10 µM [19]: 1.42 ×10⁻⁶ cm/s
- IC50 [20]: > 9.8 µM
- DOR Antag (%) ([21]; vs naloxone 121 = 100% inhibition): 85.4%
- DOR Ag (%) ([21]; vs standard agonist = 100%): –0.6%
- Ki [4]: 786 ± 210 nM
- IC50 [22]: > 30 µM
- βarrestin2 recruitment, Imax (% 120) [23]: 92 ± 1 % 120
- IC50 [24]: ≥ 10 µM
- MRT [25, 37]: 2.3 to 2.8 h
- half-life [25, 37]: 96 to 132 min
- oral bioavailability F ([25]; p.o. 1 mg/kg, 1 mg/kg): 58%
- oral bioavailability F ([25]; p.o. 10 mg/kg, 10 mg/kg): 60%
- hSERT binding enhancement / serotonin uptake inhibition potency [26]: > 10 µM
- EC50 [27]: > 10 µM
- inhibition at 10 µM [28]: 10%
- EC50 [8]: > 1000 nM
- DAT, inhibition, % of control at 10 μM [8]: –172 ± 57 (3) %
- Ki [13]: 448 ± 13 nM
- reduction of hA3AR binding affinity by 7-deaza modification [13]: 31 fold
- EC50 [29]: 2160 ± 550 nM
- hDAT [3H]119 binding, % control binding (maximal) [29]: 267 ± 17%
- Ki [30]: 3.71 ± 0.78 µM
- KOR Antag (%) [31]: 99.6%
- stability in human plasma, remaining [32]: 98%
- IC50 [33]: ≥ 10 µM
- Emax at 10 µM [34]: 0.59 ± 6.62%
- MOR Antag (%) ([35]; vs naloxone 121 = 100% inhibition, agonist 99 (300 nM)): 96.4%
- MOR Ag (%) ([35]; vs standard agonist = 100%): 0.4%
- IC50 [36]: ≥ 10 µM
